Measured values reported in article PMC6023893, “Glutamic acid–valine–citrulline linkers ensure stability and efficacy of antibody–drug conjugates in mice” (Nature Communications, 2018).
Numbered stars: 1 amine (or outer) side, 2 acyl side, 3 side chain; on linkers, the order of the positions; unused ones are H or OH. Square brackets hold non-standard residues; d marks the D form. Peptide text beside a SMILES is read from it. * marks the point of attachment. Dolaproine = CO[C@@H]([C@@H]1CCCN1)[C@@H](C)C(=O)O; NHCH2(1-pyrenyl) = c1cc2ccc3ccc(CN*)c4ccc(c1)c2c34; Dil = CC[C@H](C)[C@H](NC)[C@@H](CC(=O)O)OC; PABC = O=C(OCc1ccc(N[*:1])cc1)[*:2]; X1 = C[C@@H](N*)[C@@H](O)c1ccccc1; Cit = NC(=O)NCCC[CH](N)C(=O)O; NMeV = CN[C@H](C(=O)O)C(C)C; Glycolyl = O=C(CO)*; Sar = CNCC(=O)O

Tests used:
[1] = ref US8512707B2; cited from earlier work
in vitro = in vitro ADME; details: BALB/c, mouse, plasma
Description: Each test compound (10 mM in DMSO, 2 µL) was mixed with 1 µL of 1-pyrenemethylamine (10 mM in DMSO, internal standard) and incubated at 37 °C for 10 min. Pre-warmed human plasma pooled from healthy donors or BALB/c mouse plasma (197 µL, Innovative Research) was added to the mixture, followed by incubation at 37 °C. Aliquots (10 µL) were collected at each time point (0, 1, 6, 24, 48, and 96 h) and 40 µL of cold acetonitrile containing 1% formic acid was added to precipitate proteins. Supernatant of each sample was obtained and analyzed for quantification by analytical HPLC as described above. All assays were performed in triplicate.

human liver cathepsin B = target: T1, human liver cathepsin B (Homo sapiens, UniProt P07858); assay: Cathepsin B-mediated cleavage assay using pyrene probes; format: biochemical; details: 37 °C, pH 5.0
T1 construct: Pre-warmed human liver cathepsin B (20 ng µL^–1, EMD Millipore); purchased EMD Millipore; host or cells: human liver (tissue-derived, as named)
Description: Each test compound (10 mM in DMSO, 2 µL) was mixed with 97 µL of MES buffer (25 mM MES-Na, 1 mM DTT, pH 5.0) and 1 µL of 1-pyrenemethylamine (10 mM in DMSO, internal standard). The mixture was incubated at 37 °C for 10 min. Pre-warmed human liver cathepsin B (20 ng µL^–1, EMD Millipore) in 100 µL MES buffer was added to the mixture, followed by incubation at 37 °C. Aliquots (10 µL) were collected at each time point (0, 0.5, 1, 3, 24, and 48 h). Cold acetonitrile containing 1% formic acid (40 µL) was added to precipitate proteins. Precipitated proteins were separated by centrifugation (15,000 × g, 4 °C, 30 min) and supernatant of each sample was analyzed for quantification by analytical HPLC (UV absorption at 342 nm). The amount of each probe was normalized to the peak area of the internal standard. All assays were performed at least three times in technical duplicate, and data shown are representative of the replicates.

CC[C@H](C)[C@@H]([C@@H](CC(=O)N1CCC[C@H]1[C@H](OC)[C@@H](C)C(=O)N[C@H](C)[C@@H](O)c1ccccc1)OC)N(C)C(=O)[C@@H](NC(=O)[C@@H](NC)C(C)C)C(C)C [MMAE, monomethyl auristatin E] (H-[NMeV]V[Dil][Dolaproine]-X1)
maximum tolerated dose (MTD) [1]: 1 mg/kg

CC(=O)NC(C(=O)NC(CCCNC(N)=O)C(=O)Nc1ccc(COC(=O)N(C)CC(=O)NCc2ccc3ccc4cccc5ccc2c3c45)cc1)C(C)C (centres unmarked) [probe 1a]
half-life at 100 µM (in vitro): 2.3 h

CC(=O)NC(CO)C(=O)NC(C(=O)NC(CCCNC(N)=O)C(=O)Nc1ccc(COC(=O)N(C)CC(=O)NCc2ccc3ccc4cccc5ccc2c3c45)cc1)C(C)C (centres unmarked) [probe 1b] (Ac-SV[Cit][PABC][Sar]-{NHCH2(1-pyrenyl)}; configuration not given here)
Cathepsin B-mediated cleavage rate of probes (human liver cathepsin B): cleavage rate comparable with that of VCit probe 1a
half-life at 100 µM (in vitro): 3.1 h

CC(=O)NC(CCC(=O)O)C(=O)NC(C(=O)NC(CCCNC(N)=O)C(=O)Nc1ccc(COC(=O)N(C)CC(=O)NCc2ccc3ccc4cccc5ccc2c3c45)cc1)C(C)C (centres unmarked) [probe 1c] (Ac-EV[Cit][PABC][Sar]-{NHCH2(1-pyrenyl)}; configuration not given here)
half-life at 100 µM (in vitro): 19.1 h

CC(=O)NC(CC(=O)O)C(=O)NC(C(=O)NC(CCCNC(N)=O)C(=O)Nc1ccc(COC(=O)N(C)CC(=O)NCc2ccc3ccc4cccc5ccc2c3c45)cc1)C(C)C (centres unmarked) [probe 1d] (Ac-DV[Cit][PABC][Sar]-{NHCH2(1-pyrenyl)}; configuration not given here)
half-life at 100 µM (in vitro): 14 h

CC(=O)NC(CCCCN)C(=O)NC(C(=O)NC(CCCNC(N)=O)C(=O)Nc1ccc(COC(=O)N(C)CC(=O)NCc2ccc3ccc4cccc5ccc2c3c45)cc1)C(C)C (centres unmarked) [probe 1e] (Ac-KV[Cit][PABC][Sar]-{NHCH2(1-pyrenyl)}; configuration not given here)
half-life at 100 µM (in vitro): 0.9 h

CC(C)C(NC(=O)CNC(=O)CO)C(=O)NC(CCCNC(N)=O)C(=O)Nc1ccc(COC(=O)N(C)CC(=O)NCc2ccc3ccc4cccc5ccc2c3c45)cc1 (centres unmarked) [probe 1f] (Glycolyl-GV[Cit][PABC][Sar]-{NHCH2(1-pyrenyl)}; configuration not given here)
half-life at 100 µM (in vitro): 5 h
